Test results: patent publication US8263079B2, “Antibodies against CSF-1R” (ImClone, LLC, priority 2010, dated 2012)

What was measured:
[1] = test system: DU145 prostate cells; test: Prostate tumor combination study, DU145 xenograft; type: in vivo, mouse; details: 12 mg/kg IP Q7Dx3, vs saline control, P 0.15
From the text: Inject Nu/nu mice (male, 7-8 weeks of age) subcutaneously with 1.5×10^7 DU145 prostate cells/mouse and allow tumors to reach 300 mm^3 before treatment. Randomize mice into groups of 10 and treat as follows:
Measure tumor volumes and calculate the T/C % for each treatment as the ratio of the relative tumor volumes versus the control group. Analyze tumor volumes using RM ANOVA.

[2] = test system: HCC-1954 breast cells; test: Breast tumor combination studies, HCC-1954 xenograft; type: in vivo, mouse
From the text: Inject Nu/nu mice (female, 7-8 weeks of age) subcutaneously with 1×10^7 HCC-1954 breast cells/mouse and allow tumors to reach 300 mm^3 before treatment. Randomize mice into groups of 12 and treat as follows:
Measure tumor volumes and calculate the T/C % for each treatment group as the ratio of the relative tumor volumes versus the control group. Analyze tumor volumes using RM ANOVA.

[3] = biological target: T1, CSF-1R (Homo sapiens, UniProt P07333); test: Degradation of CSF-1R in NIH-3T3-CSF-1R cells (Western blot, normalized to actin); type: cell-based
T1 construct: expressed in transfected cells
Procedure: Seed NIH-3T3-CSF-1R cells at 5×10^5 cells/well in a 12 well plate in 1 mL DMEM media containing 10% FBS and 1 mg/mL geniticin. […] CSF-1 is known to induce internalization and degradation of CSF-1R, thereby acting as a positive control for the experiment. Allow CSF-1 to remain on cells for 1 and 5 hours before collecting cells. […] Aspirate medium, lyse cells and run clarified lysates on gels (as described above). Probe transferred proteins with anti-CSF-1R antibodies to determine the amount of receptor for each condition. Probe the same blots with anti-actin antibodies to normalize protein levels. Quantify CSF-1R and actin levels using the Multi-Gauge program to measure band density on the Western blot. The relative total CSF-1R protein level is represented by the total CSF-1R band density divided by the corresponding actin band density.

For `CC(=O)O[C@@]12CO[C@@H]1C[C@H](O)[C@@]1(C)C(=O)[C@H](O)C3=C(C)[C@@H](OC(=O)[C@H](O)[C@@H](NC(=O)OC(C)(C)C)c4ccccc4)C[C@@](O)([C@@H](OC(=O)c4ccccc4)[C@H]21)C3(C)C` [Docetaxel], the “% T/C” value [1] was 59%.

For `COc1cccc2c1C(=O)c1c(O)c3c(c(O)c1C2=O)C[C@@](O)(C(=O)CO)C[C@@H]3O[C@H]1C[C@H](N)[C@H](O)[C@H](C)O1` [Doxorubicin], the “% T/C” value ([2]; 8 mg/kg IP Q7Dx2, vs saline control, P 0.008) was 50%.

With `CC(=O)O[C@H]1C(=O)[C@@]2(C)[C@H]([C@H](OC(=O)c3ccccc3)[C@]3(O)C[C@H](OC(=O)[C@H](O)[C@@H](NC(=O)c4ccccc4)c4ccccc4)C(C)=C1C3(C)C)[C@]1(OC(C)=O)CO[C@@H]1C[C@@H]2O` [Paclitaxel] the “% T/C” value ([2]; 10 mg/kg IP Q7Dx3, vs saline control, P<0.01) was 60%.

B1: CSF-1: Colony Stimulating Factor-1, CSF-1R ligand, positive control for receptor degradation (protein, listed as Homo sapiens)
chain: MTAPGAAGRCPPTTWLGSLLLLVCLLASRSITEEVSEYCSHMIGSGHLQSLQRLIDSQMETSCQITFEFVDQEQLKDPVCYLKKAFLLVQDIMEDTMRFRDNTPNAIAIVQLQELSLRLKSCFTKDYEEHDKACVRTFYETPLQLLEKVKNVFNETKNLLDKDWNIFSKNCNNSFAECSSQDVVTKPDCNCLYPKAIPSSDPASVSPHQPLAPSMAPVAGLTWEDSEGTEGSSLLPGEQPLHTVDPGSAKQRPPRSTCQSFEPPETPVVKDSTIGGSPQPRPSVGAFNPGMEDILDSAMGTNWVPEEASGEASEIPVPQGTELSPSRPGGGSMQTEPARPSNFLSASSPLPASAKGQQPADVTGTALPRVGPVRPTGQDWNHTPQKTDHPSALLRDPPEPGSPRISSLRPQGLSNPSTLSAQPQLSRSHSSGSVLPLGELEGRRSTRDRRSPAEPEGGPASEGAARPLPRFNSVPLTDTGHERQSEGSFSPQLQESVFHLLVPSVILVLLAVGGLLFYRWRRRSHQEPQRADSPLEQPEGSPLTQDDRQVELPV
For B1, the “CSF-1R levels (degradation)” value ([3]; 100 ng/mL CSF-1, by 5 hours, positive control) was “halved” and the “time to degradation of CSF-1R” value ([3]; 100 ng/mL CSF-1, positive control) was no more than 1 h.
